We go through six molecules from patent US20250170090A1, “METHOD FOR PREVENTING OR TREATING DISEASE OR DISORDER ASSOCIATED WITH ANTINEOPLASTIC AGENT” (ONQUALITY PHARMACEUTICALS CHINA LTD., priority 2022, published 2025).

The test system of assay [1] is anti-tumor agent-induced hand-foot syndrome. The experiment in a line: Comparison of different mechanism compounds in preventing sorafenib-induced hand-foot syndrome in rats (Table 6). Conditions: Sorafenib 80 mg/kg once a day, Days 15. The format is in vivo. How it is done: After the rats (about 200 g) were acclimated for one week, they were divided into groups of 10 and then subjected to gavage administration experiments. The anti-tumor agent (the anti-tumor agent modeled by sorafenib) was dissolved in a mixed solution of Cremophor EL:ethanol=1:1, and diluted to the required concentration with PBS (diluted about 3 times with PBS solution) before gavage administration. After gavage, the hind paws of the rats were treated with ointments of different mechanisms (NO-releasing agent group, NO-releasing agent combined with clinical drug group, NSAID group), while the control group was treated with a blank ointment. After the application of the ointment, the rats were placed in a fixed cylinder for 4 hours. After 4 hours, the rats were released, and the residual drugs in the application site were wiped off with clean water, and the rats were returned to the cage. Different treatment groups were only applied once a day. Gavage and ointment application were repeated every day until the end of the experiment.
Table 6 lists the animal experimental combinations of various anti-tumor agents and ointments from different treatment groups, as well as the corresponding experimental results (where the value in the control rate column=the incidence rate of hand-foot syndrome in the blank group−the incidence rate of hand-foot syndrome in the treatment group).

Assay [2] deals with hand-foot syndrome induced by anti-tumor agents. The experiment in a line: Prevention of hand-foot syndrome induced by anti-tumor agents in rats, NO-NSAID ointment on hind paws (Table 2-2). In kind it is in vivo, SD rats. Conditions: Rattus norvegicus, topical, 120 h, Sorafenib 80 mg/kg once a day, Days 5, read-out: Control rate. The text has this:
A rat animal model was constructed, and the anti-tumor agents shown in Table 2-2 were respectively administered to 8-week-old female SD rats by daily oral gavage. […] Therefore, rats serve as an excellent animal model for simulating side effects (such as hand-foot syndrome) caused by anti-tumor agents.
After the rats (about 200 g) were fed and adapted for one week, they were divided into a NO-NSAID group and a control group, with 10 rats in each group, and a gavage administration test was conducted. The various anti-tumor agents were dissolve in a mixed solution of Cremophor EL:ethanol=1:1. The anti-tumor agent solution were diluted with PBS to the required concentration (about 3 times with PBS solution) before gavage administration. After gavage, an ointment containing NO-NSAID was applied to the hind paws of the rats, while the control group was applied with a blank ointment. After application, the rats were placed in a fixed cylinder for 4 hours. After 4 hours, the rats were released and the residual ointment was wiped off with clean water, then the rats were returned to the cage. The gavage frequency of inhibitors was shown in Table 2-2, and NO-NSAID was only applied once a day. The gavage and application operations were repeated daily until the end of the experiment.
Table 2-2 lists the animal experimental combinations of various anti-tumor agents and NO-NSAID ointments, as well as the corresponding experimental results (wherein the value in the control rate column=the hand-foot syndrome incidence rate in the blank group−the hand-foot syndrome incidence rate in the treatment group).

The test system of a further assay is HUVEC cells. Briefly: CCK-8 cell viability: alleviation of proliferative toxicity of anti-tumor agents on HUVEC cells (Tables 7-1, 7-2). The format is cell-based. Conditions: Homo sapiens, 24 h, NO-NSAID 100 μM, percentage increase in viable cells vs anti-tumor agent alone, read-out: Response rate % (average). On the procedure:
The cultured HUVEC cells were digested the suspended, counted, and seed into a 96-well plate with 5,000-10,000 cells per well. The wells are divided into the following groups: blank control group, anti-tumor agent group, anti-tumor agent+NO-NSAID group, anti-tumor agent solvent group, NO-NSAID control group. Wherein each well of each group contained a basic medium, and the final liquid volume contained in each well was about 100 μL. The grouping situation was as follows: • 1) Blank control group: no solution was added except normally replacing the medium; • 2) Anti-tumor agent group: added the anti-tumor agent solution (the final concentration was shown in Table 7-1 and Table 7-2, the solvent of the anti-tumor agent solution was DMSO); • 3) Anti-tumor agent+NO-NSAID group: added the anti-tumor agent solution and the NO-NSAID solution (the final concentrations of anti-tumor agent and NO-NSAID were shown in Table 7-1 and Table 7-2, and according to the solubility of NO-NSAID, the solvent of NO-NSAID solution was selected as ethanol or sterile water, and minor volume differences in each group were adjusted by added the corresponding solvent); • 4) Anti-tumor agent solvent group: an equal volume of DMSO as contained in the corresponding anti-tumor agent solution in Group 2) was added; • 5) NO-NSAID control group: the same volume and type of solvent (for example, ethanol or sterile water) corresponding to the NO-NSAID contained in group 3) was added.
The anti-tumor agent solvent group was not involved in data processing and was only used as a reference for evaluating experimental system error. The NO-NSAID solvent control group was used for data correction to eliminate the influence of the solvent on the results.
After culturing for 24-48 hours, the Cell Counting Kit-8 (CCK-8) detection kit (C0037, Shanghai Beyotime Biotechnology Co., Ltd., Beyotime Biotechnology) was used to determine the cell viability. This allows for the calculation of the proliferative toxicity of anti-tumor agent on cell and the mitigating effect of NO-NSAID on proliferative toxicity. The results were statistically analyzed and plotted using GraphPad Prism 6.0 software and t test.

Where two headings read alike, the source gives them in different places.

As for `O=[N+]([O-])OCC(CO[N+](=O)[O-])O[N+](=O)[O-]` [Nitroglycerin], in assay [1] (ointment 0.20% wt), the Control rate was 60%.

In the case of `COc1ccc2cc(C(C)C(=O)OCC(CO[N+](=O)O)C[N+](=O)[O-])ccc2c1` (centres unmarked) [Compound A9], the responders at 1 % in assay [2] (ointment 1% wt) came out at 28.6%. Also, the responders at 5 % in assay [2] (ointment 5% wt) was 33.3%. The activation at 100 µM in the assay on HUVEC cells (Afatinib (10 μM)) was determined as 32%; in the assay on HUVEC cells (Anlotinib (5 μM)) it was 58%; with HUVEC cells (Apatinib (10 μM)) it was 62%; with HUVEC cells (Axitinib (10 μM)) it was 45%; in the assay with HUVEC cells (Cabozantinib (5 μM)) it was 0%; with HUVEC cells (Dabrafenib (10 μM)), 35%. Also, the activation at 100 µM was determined as 39% in the assay with HUVEC cells (Dacomitinib (5 μM)); 15% in the assay with HUVEC cells (Encorafenib (5 μM)); 42% with HUVEC cells (Erdafitinib (10 μM)); 7% in the assay with HUVEC cells (Everolimus (5 μM)); 33% in the assay on HUVEC cells (Famitinib (5 μM)); 56% with HUVEC cells (Fruquintinib (10 μM)). In addition, the activation at 100 µM in the assay with HUVEC cells (Gefitinib (10 μM)) came to 40%; with HUVEC cells (Infigratinib (15 μM)), 29%; in the assay on HUVEC cells (Lapatinib (5 μM)) it was 40%; in the assay on HUVEC cells (Lenvatinib (10 μM)), 43%; with HUVEC cells (Olmutinib (10 μM)), 42%; with HUVEC cells (Regorafenib (5 μM)) it was 40%. In addition, the activation at 100 µM in the assay with HUVEC cells (Selumetinib (5 μM)) is 36%; with HUVEC cells (Sorafenib (5 μM)), 48%; in the assay with HUVEC cells (Sunitinib (5 μM)), 16%; in the assay on HUVEC cells (Vemurafenib (5 μM)) it was 39%.

As for `CC(=O)Oc1ccccc1C(=O)O` [Acetylsalicylic acid], the Control rate in assay [1] (ointment 1.00% wt) worked out at 14.29%.

In the case of `CC(C)Cc1ccc(C(C)C(=O)O)cc1` (centres unmarked) [Ibuprofen], the Control rate in assay [1] (ointment 2.00% wt) was 0%.

Take `COc1ccc2cc([C@H](C)C(=O)O)ccc2c1` [Naproxen]: the Control rate in assay [1] (ointment 2.50% wt) worked out at 16.67%.

For `CC(C(=O)OCC(CO[N+](=O)[O-])O[N+](=O)[O-])c1ccc(-c2ccccc2)c(F)c1` (centres unmarked) [Compound A10], the activation at 100 µM was 56% with HUVEC cells (Afatinib (10 μM)); 27% in the assay on HUVEC cells (Anlotinib (5 μM)); 58% with HUVEC cells (Apatinib (10 μM)); -7% in the assay on HUVEC cells (Axitinib (10 μM)); 49% in the assay with HUVEC cells (Cabozantinib (5 μM)); 42% in the assay on HUVEC cells (Dabrafenib (10 μM)). The activation at 100 µM turned out to be 37% in the assay with HUVEC cells (Dacomitinib (5 μM)); 33% in the assay on HUVEC cells (Encorafenib (5 μM)); 23% with HUVEC cells (Erdafitinib (10 μM)); 21% in the assay on HUVEC cells (Everolimus (5 μM)); 49% in the assay with HUVEC cells (Famitinib (5 μM)); 59% with HUVEC cells (Fruquintinib (10 μM)). For the same molecule, the activation at 100 µM in the assay with HUVEC cells (Gefitinib (10 μM)) turned out to be 40%; in the assay with HUVEC cells (Infigratinib (15 μM)), 32%; in the assay with HUVEC cells (Lapatinib (5 μM)) it was 32%; in the assay on HUVEC cells (Lenvatinib (10 μM)), 57%; with HUVEC cells (Olmutinib (10 μM)) it was 48%; in the assay on HUVEC cells (Regorafenib (5 μM)), 48%. For the same molecule, the activation at 100 µM is 46% in the assay on HUVEC cells (Selumetinib (5 μM)), 13% with HUVEC cells (Sorafenib (5 μM)), 21% with HUVEC cells (Sunitinib (5 μM)) and 63% in the assay on HUVEC cells (Vemurafenib (5 μM)).
